Experimental data taken from PubChem BioAssay AID1259407 (Chemical Carcinogenesis Research Information System (CCRIS), 2018).
Active and inactive are the calls of the source. The rule behind the calls is not given here.

System: CCRIS mutagenicity, Ames/micronucleus/aberration tests
Assay: CCRIS mutagenicity studies

C=CC#N
mutagenic call (End Point: IN VITRO CHROMOSOMAL ABERRATIONS, Test System: CHL CELLS, Metabolic Activation: RAT, LIVER, S-9, SODIUM PHENOBARBITAL AND 5,6-BENZOFLAVONE): active; positive (structural changes)
mutagenic call (End Point: IN VIVO CHROMOSOMAL ABERRATIONS, Test System: BONE MARROW CELLS, Species: MOUSE, Strain/Sex: C57B1/6/MALE, Route: IP INJECTION (ONCE)): inactive; negative
mutagenic call (Test System: AMES SALMONELLA TYPHIMURIUM, Strain/Indicator: TA97, Metabolic Activation: HAMSTER LIVER S-9, AROCLOR 1254 (10%), Method: PREINCUBATION): inactive; negative
mutagenic call (Test System: AMES SALMONELLA TYPHIMURIUM, Strain/Indicator: TA97, Metabolic Activation: NONE, Method: PREINCUBATION): inactive; negative
mutagenic call (Test System: AMES SALMONELLA TYPHIMURIUM, Strain/Indicator: TA97, Metabolic Activation: NONE, Method: STANDARD PLATE): inactive; negative
mutagenic call (Test System: AMES SALMONELLA TYPHIMURIUM, Strain/Indicator: TA97, Metabolic Activation: RAT LIVER S-9, AROCLOR 1254 (10%), Method: PREINCUBATION): inactive; negative
mutagenic call (Test System: AMES SALMONELLA TYPHIMURIUM, Strain/Indicator: TA97, Metabolic Activation: RAT, LIVER, S-9, AROCLOR 1254, Method: STANDARD PLATE): inactive; negative
mutagenic call (Test System: AMES SALMONELLA TYPHIMURIUM, Strain/Indicator: TA97, Metabolic Activation: S-9, Method: STANDARD PLATE): inactive; negative
mutagenic call (Test System: AMES SALMONELLA TYPHIMURIUM, Strain/Indicator: TA98, Metabolic Activation: HAMSTER LIVER S-9, AROCLOR 1254 (10%), Method: PREINCUBATION): inactive; negative
mutagenic call (Test System: AMES SALMONELLA TYPHIMURIUM, Strain/Indicator: TA98, Metabolic Activation: NONE, Method: PREINCUBATION): inactive; negative
mutagenic call (Test System: AMES SALMONELLA TYPHIMURIUM, Strain/Indicator: TA98, Metabolic Activation: NONE, Method: STANDARD PLATE): inactive; negative
mutagenic call (Test System: AMES SALMONELLA TYPHIMURIUM; Strain/Indicator: TA98; Metabolic Activation: RAT LIVER S-9, AROCLOR 1254 910%), Method: PREINCUBATION): inactive; negative
mutagenic call (Test System: AMES SALMONELLA TYPHIMURIUM, Strain/Indicator: TA98, Metabolic Activation: RAT, LIVER, S-9, AROCLOR 1254, Method: STANDARD PLATE): inactive; negative
mutagenic call (Test System: AMES SALMONELLA TYPHIMURIUM, Strain/Indicator: TA98, Metabolic Activation: S-9, Method: STANDARD PLATE): inactive; negative
mutagenic call (Test System: AMES SALMONELLA TYPHIMURIUM, Strain/Indicator: TA100, Metabolic Activation: HAMSTER LIVER S-9, AROCLOR 1254 (5%), Method: PREINCUBATION): inactive; negative
mutagenic call (Test System: AMES SALMONELLA TYPHIMURIUM, Strain/Indicator: TA100, Metabolic Activation: HAMSTER LIVER S-9, AROCLOR 1254 (5 OR 10%), Method: PREINCUBATION): inactive; negative
mutagenic call (Test System: AMES SALMONELLA TYPHIMURIUM, Strain/Indicator: TA100, Metabolic Activation: HAMSTER LIVER S-9, AROCLOR 1254 (10% OR 30%), Method: PREINCUBATION): active; positive
mutagenic call (Test System: AMES SALMONELLA TYPHIMURIUM, Strain/Indicator: TA100, Metabolic Activation: HAMSTER LIVER S-9, AROCLOR 1254 (10%), Method: PREINCUBATION): active; positive
mutagenic call (Test System: AMES SALMONELLA TYPHIMURIUM, Strain/Indicator: TA100, Metabolic Activation: HAMSTER LIVER S-9, AROCLOR 1254 (30%), Method: PREINCUBATION): active; positive
mutagenic call (Test System: AMES SALMONELLA TYPHIMURIUM, Strain/Indicator: TA100, Metabolic Activation: HAMSTER, LIVER, S-9, AROCLOR 1254 (5, 10, 20%), Method: PREINCUBATION): active; positive
mutagenic call (Test System: AMES SALMONELLA TYPHIMURIUM, Strain/Indicator: TA100, Metabolic Activation: HAMSTER, LIVER, S-9, AROCLOR 1254 (20%), Method: PREINCUBATION): active; positive
mutagenic call (Test System: AMES SALMONELLA TYPHIMURIUM, Strain/Indicator: TA100, Metabolic Activation: NONE, Method: PREINCUBATION): inactive; negative
mutagenic call (Test System: AMES SALMONELLA TYPHIMURIUM, Strain/Indicator: TA100, Metabolic Activation: NONE, Method: STANDARD PLATE): inactive; negative
mutagenic call (Test System: AMES SALMONELLA TYPHIMURIUM, Strain/Indicator: TA100, Metabolic Activation: RAT LIVER S-9, AROCLOR 1254 (5, 10, OR 30%), Method: PREINCUBATION): inactive; negative
mutagenic call (Test System: AMES SALMONELLA TYPHIMURIUM, Strain/Indicator: TA100, Metabolic Activation: RAT LIVER S-9, AROCLOR 1254 (5/%, 10% OR 30%), Method: PREINCUBATION): inactive; negative
mutagenic call (Test System: AMES SALMONELLA TYPHIMURIUM, Strain/Indicator: TA100, Metabolic Activation: RAT LIVER S-9, AROCLOR 1254 (10%), Method: PREINCUBATION): inactive; negative
mutagenic call (Test System: AMES SALMONELLA TYPHIMURIUM, Strain/Indicator: TA100, Metabolic Activation: RAT, LIVER, S-9, AROCLOR 1254, Method: FLUCTUATION): active; positive
mutagenic call (Test System: AMES SALMONELLA TYPHIMURIUM, Strain/Indicator: TA100, Metabolic Activation: RAT, LIVER, S-9, AROCLOR 1254, Method: STANDARD PLATE): inactive; negative
mutagenic call (Test System: AMES SALMONELLA TYPHIMURIUM, Strain/Indicator: TA100, Metabolic Activation: S-9, Method: STANDARD PLATE): inactive; negative
mutagenic call (Test System: AMES SALMONELLA TYPHIMURIUM, Strain/Indicator: TA102, Metabolic Activation: NONE, Method: STANDARD PLATE): inactive; negative
mutagenic call (Test System: AMES SALMONELLA TYPHIMURIUM, Strain/Indicator: TA102, Metabolic Activation: S-9, Method: STANDARD PLATE): inactive; negative
mutagenic call (Test System: AMES SALMONELLA TYPHIMURIUM, Strain/Indicator: TA1530, Metabolic Activation: RAT, LIVER, S-9, 3-METHYLCHOLANTHRENE OR PCB OR PHENOBARBITAL, Method: FLUCTUATION): active; positive
mutagenic call (Test System: AMES SALMONELLA TYPHIMURIUM, Strain/Indicator: TA1530, Metabolic Activation: RAT, LIVER, S-9, PCB OR PHENOBARBITAL, Method: DESICCATOR): active; positive
